Laboratory results: US9284277B2, “Benzazepines as serotonin 5-HT2C receptor ligands and uses thereof” (ABT Holding Company, priority 2012, dated 2016)
Like-named read-outs stand apart in the source and are kept apart here.

Molecular target: T1, human 5HT2c receptor (INI isoform) (Homo sapiens, UniProt P28335)
T1 sequence (P28335 33-458): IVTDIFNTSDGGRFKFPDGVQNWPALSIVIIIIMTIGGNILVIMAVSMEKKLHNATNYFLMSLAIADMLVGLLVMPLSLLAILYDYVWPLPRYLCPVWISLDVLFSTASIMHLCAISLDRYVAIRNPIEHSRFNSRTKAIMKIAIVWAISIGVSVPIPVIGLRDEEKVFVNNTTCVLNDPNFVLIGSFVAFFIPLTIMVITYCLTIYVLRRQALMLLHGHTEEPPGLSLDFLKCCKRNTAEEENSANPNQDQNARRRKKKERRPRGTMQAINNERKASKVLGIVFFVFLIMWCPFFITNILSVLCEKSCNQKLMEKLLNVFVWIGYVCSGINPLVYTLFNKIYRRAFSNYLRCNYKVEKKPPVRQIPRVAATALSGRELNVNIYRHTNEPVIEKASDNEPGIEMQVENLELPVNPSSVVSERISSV
Experiment: Phosphotidyl Inositol Turnover Assay (IP-One Tb kit), agonist potency
Type: cell-based

[1] = 5-HT2c PI turnover potency of the more active isomer (where applicable), HEK 293 EBNA cells expressing INI isoform of human 5HT2c receptor, read-out: Potency at 5HT2c (INI isoform)

SMILES	EC50 [nM]	EC50 [1] [nM]
c1cc2c(c3c1CCC3)CCNCC2 [Example 1, 1,2,3,6,7,8,9,10-Octahydro-8-aza-cyclohepta[e]indene]	< 10	
CC1CCc2ccc3c(c21)CCNCC3 (stereo not shown) [Example 2, 1-Methyl-1,2,3,6,7,8,9,10-octahydro-8-aza-cyclohepta[e]indene]	< 10	
CCC1CCc2ccc3c(c21)CCNCC3 (stereo not shown) [Example 3, 1-Ethyl-1,2,3,6,7,8,9,10-octahydro-8-aza-cyclohepta[e]indene]	< 10	
c1cc2c(c3c1CCNCC3)C(C1CC1)CC2 (stereo not shown) [Example 4, 1-Cyclopropyl-1,2,3,6,7,8,9,10-octahydro-8-aza-cyclohepta[e]indene]		< 10
CCCC1CCc2ccc3c(c21)CCNCC3 (stereo not shown) [Example 5, 1-Propyl-1,2,3,6,7,8,9,10-octahydro-8-aza-cyclohepta[e]indene]	< 10	
CCC1CCc2c(Cl)cc3c(c21)CCNCC3 (stereo not shown) [Example 6, 4-Chloro-1-ethyl-1,2,3,6,7,8,9,10-octahydro-8-aza-cyclohepta[e]indene]	< 10	
CCC1CCc2c(I)cc3c(c21)CCNCC3 (stereo not shown) [Example 7, 1-Ethyl-4-iodo-1,2,3,6,7,8,9,10-octahydro-8-aza-cyclohepta[e]indene]	< 10	
CCC1CCc2c(F)cc3c(c21)CCNCC3 (stereo not shown) [Example 8, 1-Ethyl-4-fluoro-1,2,3,6,7,8,9,10-octahydro-8-aza-cyclohepta[e]indene]	< 10	
c1ccc(C2CCc3ccc4c(c32)CCNCC4)cc1 (stereo not shown) [Example 9, 1-Phenyl-1,2,3,6,7,8,9,10-octahydro-8-aza-cyclohepta[e]indene]		< 10
Clc1cc2c(c3c1CCC3c1ccccc1)CCNCC2 (stereo not shown) [Example 10, 4-Chloro-1-phenyl-1,2,3,6,7,8,9,10-octahydro-8-aza-cyclohepta[e]indene]	< 10	
c1cncc(C2CCc3ccc4c(c32)CCNCC4)c1 (stereo not shown) [Example 11, 1-Pyridin-3-yl-1,2,3,6,7,8,9,10-octahydro-8-aza-cyclohepta[e]indene]		< 10
Fc1cc2c(c3c1CCC3c1cccnc1)CCNCC2 (stereo not shown) [Example 12, 4-Fluoro-1-pyridin-3-yl-1,2,3,6,7,8,9,10-octahydro-8-aza-cyclohepta[e]indene]		< 10
CC1(C)CCc2ccc3c(c21)CCNCC3 [Example 13, 1,1-Dimethyl-1,2,3,6,7,8,9,10-octahydro-8-aza-cyclohepta[e]indene]	< 10	
FC1(F)Cc2ccc3c(c2C1c1ccccc1)CCNCC3 (stereo not shown) [Example 14, 2,2-Difluoro-1-phenyl-1,2,3,6,7,8,9,10-octahydro-8-aza-cyclohepta[e]indene]		< 10
Cc1ccccc1C1c2c(ccc3c2CCNCC3)CC1(F)F (stereo not shown) [Example 15, 2,2-Difluoro-1-o-tolyl-1,2,3,6,7,8,9,10-octahydro-8-aza-cyclohepta[e]indene]		< 10
Cc1cccc(C2c3c(ccc4c3CCNCC4)CC2(F)F)c1 (stereo not shown) [Example 16, 2,2-Difluoro-1-m-tolyl-1,2,3,6,7,8,9,10-octahydro-8-aza-cyclohepta[e]indene]		< 10
Cc1ccc(C2c3c(ccc4c3CCNCC4)CC2(F)F)cc1 (stereo not shown) [Example 17, 2,2-Difluoro-1-p-tolyl-1,2,3,6,7,8,9,10-octahydro-8-aza-cyclohepta[e]indene]		< 100
FC(F)(F)c1cccc(C2c3c(ccc4c3CCNCC4)CC2(F)F)c1 (stereo not shown) [Example 18, 2,2-Difluoro-1-(3-trifluoromethyl-phenyl)-1,2,3,6,7,8,9,10-octahydro-8-aza-cyclohepta[e]indene]		< 10
FC(F)(F)Oc1cccc(C2c3c(ccc4c3CCNCC4)CC2(F)F)c1 (stereo not shown) [Example 19, 2,2-Difluoro-1-(3-trifluoromethoxy-phenyl)-1,2,3,6,7,8,9,10-octahydro-8-aza-cyclohepta[e]indene]		< 10
Fc1ccc(C2c3c(ccc4c3CCNCC4)CC2(F)F)cc1 (stereo not shown) [Example 20, 2,2-Difluoro-1-(4-fluoro-phenyl)-1,2,3,6,7,8,9,10-octahydro-8-aza-cyclohepta[e]indene]		< 10
Fc1cccc(C2c3c(ccc4c3CCNCC4)CC2(F)F)c1 (stereo not shown) [Example 21, 2,2-Difluoro-1-(3-fluoro-phenyl)-1,2,3,6,7,8,9,10-octahydro-8-aza-cyclohepta[e]indene]		< 10
FC1(F)Cc2ccc3c(c2C1C1CC1)CCNCC3 (stereo not shown) [Example 22, 1-Cyclopropyl-2,2-difluoro-1,2,3,6,7,8,9,10-octahydro-8-aza-cyclohepta[e]indene]		< 10

SMILES	EC50 [nM]	EC50 [1] [nM]
FC1(F)Cc2ccc3c(c2C1c1cccc(Cl)c1)CCNCC3 (stereo not shown) [Example 23, 1-(3-Chloro-phenyl)-2,2-difluoro-1,2,3,6,7,8,9,10-octahydro-8-aza-cyclohepta[e]indene]		< 10
FC1(F)Cc2ccc3c(c2C1c1ccc(Cl)cc1)CCNCC3 (stereo not shown) [Example 24, 1-(4-Chloro-phenyl)-2,2-difluoro-1,2,3,6,7,8,9,10-octahydro-8-aza-cyclohepta[e]indene]		< 10
COc1ccccc1C1c2c(ccc3c2CCNCC3)CC1(F)F (stereo not shown) [Example 25, 2,2-Difluoro-1-(2-methoxy-phenyl)-1,2,3,6,7,8,9,10-octahydro-8-aza-cyclohepta[e]indene]		< 10
COc1cccc(C2c3c(ccc4c3CCNCC4)CC2(F)F)c1 (stereo not shown) [Example 26, 2,2-Difluoro-1-(3-methoxy-phenyl)-1,2,3,6,7,8,9,10-octahydro-8-aza-cyclohepta[e]indene]		< 10
COc1ccc(C2c3c(ccc4c3CCNCC4)CC2(F)F)cc1 (stereo not shown) [Example 27, 2,2-Difluoro-1-(4-methoxy-phenyl)-1,2,3,6,7,8,9,10-octahydro-8-aza-cyclohepta[e]indene]		< 100
FC1(F)Cc2ccc3c(c2C1c1cccnc1)CCNCC3 (stereo not shown) [Example 28, 2,2-Difluoro-1-pyridin-3-yl-1,2,3,6,7,8,9,10-octahydro-8-aza-cyclohepta[e]indene]		< 10
FC1(F)Cc2ccc3c(c2C1c1ccncc1)CCNCC3 (stereo not shown) [Example 29, 2,2-Difluoro-1-pyridin-4-yl-1,2,3,6,7,8,9,10-octahydro-8-aza-cyclohepta[e]indene]		< 1000
FC1(F)Cc2c(Cl)cc3c(c2C1c1cccnc1)CCNCC3 (stereo not shown) [Example 30, 4-Chloro-2,2-difluoro-1-pyridin-3-yl-1,2,3,6,7,8,9,10-octahydro-8-aza-cyclohepta[e]indene]		< 10
CCC1c2c(ccc3c2CCNCC3)CC1(F)F (stereo not shown) [Example 31, 1-Ethyl-2,2-difluoro-1,2,3,6,7,8,9,10-octahydro-8-aza-cyclohepta[e]indene]	< 10	
CC1c2c(ccc3c2CCNCC3)CC1(F)F (stereo not shown) [Example 32, 2,2-Difluoro-1-methyl-1,2,3,6,7,8,9,10-octahydro-8-aza-cyclohepta[e]indene]	< 10	
FC1(F)Cc2ccc3c(c2C1Cc1ccccc1)CCNCC3 (stereo not shown) [Example 33, 1-Benzyl-2,2-difluoro-1,2,3,6,7,8,9,10-octahydro-8-aza-cyclohepta[e]indene]		< 10
CC1(C)c2c(ccc3c2CCNCC3)CC1(F)F [Example 34, 2,2-Difluoro-1,1-dimethyl-1,2,3,6,7,8,9,10-octahydro-8-aza-cyclohepta[e]indene]	< 10	
CC1(C)CCc2c(-c3ccccc3)cc3c(c21)CCNCC3 [Example 35, 1,1-Dimethyl-4-phenyl-1,2,3,6,7,8,9,10-octahydro-8-aza-cyclohepta[e]indene]	< 1000	
CCC1COc2ccc3c(c21)CCNCC3 (stereo not shown) [Example 36, 1-Ethyl-1,2,7,8,9,10-hexahydro-6H-3-oxa-8-aza-cyclohepta[e]indene]	< 10	
CCC1CCOc2ccc3c(c21)CCNCC3 (stereo not shown) [Example 37, 1-Ethyl-2,3,8,9,10,11-hexahydro-1H,7H-4-oxa-9-aza-cyclohepta[a]naphthalene]	< 10	
COC1c2c(ccc3c2CCNCC3)CC1(F)F (stereo not shown) [Example 38, 2,2-Difluoro-1-methoxy-1,2,3,6,7,8,9,10-octahydro-8-aza-cyclohepta[e]indene]	< 10	
c1ccc(-c2coc3ccc4c(c23)CCNCC4)cc1 [Example 39, 1-Phenyl-7,8,9,10-tetrahydro-6H-3-oxa-8-aza-cyclohepta[e]indene]		< 10
c1csc(C2CCc3ccc4c(c32)CCNCC4)n1 (stereo not shown) [Example 40, 1-Thiazol-2-yl-1,2,3,6,7,8,9,10-octahydro-8-aza-cyclohepta[e]indene]		< 10
CCOC1c2c(ccc3c2CCNCC3)CC1(F)F (stereo not shown) [Example 41, 1-Ethoxy-2,2-difluoro-1,2,3,6,7,8,9,10-octahydro-8-aza-cyclohepta[e]indene]	< 10	
FC1(F)Cc2ccc3c(c2C1)CCNCC3 [Example 42, 2,2-Difluoro-1,2,3,6,7,8,9,10-octahydro-8-aza-cyclohepta[e]indene]	< 10	
COC1CCc2ccc3c(c21)CCNCC3 (stereo not shown) [Example 43, 1-Methoxy-1,2,3,6,7,8,9,10-octahydro-8-aza-cyclohepta[e]indene]	< 10	
